Experimental data from US20210108191A1, “Methods of Production of Biologically Active Lasso Peptides” (The Board of Trustees of the University of Illinois, priority 2017, published 2021).
Bridges are numbered along the chain shown (N, C = ends). Where no end group is shown, it is not given here.

Tested on: several pathogenic bacteria
Assay: activity against pathogenic bacteria
Type: cell-based
Description: RODEO can be used to assist in identifying lasso peptide gene clusters (FIG. 2). […] Several new lasso peptides have been characterized. (FIG. 3B-C). […] RODEO provides a roadmap for the discovery of new RiPPs and lasso peptide biosynthetic enzymology.

For “LP2006: rare disulfide-containing, class IV lasso peptide (SEQ ID NO:6) from Nocardiopsis alba (GRPNWGFENDWSCVRVC; disulfide 13-17 (inferred); also: lasso topology, ring places not given here)”, the “activity against pathogenic bacteria” value was “active against several pathogenic bacteria”.
